Test results: patent publication US7799775B2, “Pyrimidine derivatives” (ASKA Pharmaceutical Co., Ltd., priority 2004, dated 2010)
Where a name gives a salt, the structure may show the parent alone.

How the values were obtained:
human 5-HT3 receptor = molecular target: T1, human 5-HT3 receptor (Homo sapiens, UniProt P46098); assay: Measurement of affinity to human 5-HT3 receptor (in vitro), [3H]BRL-43694 binding; conditions: test compound 100 nmols/L; [3H]BRL-43694 0.5 nmols/L; HEK-293 cell membrane expressing human 5-HT3 receptor; read-out: Percent Inhibition (%) on Each Receptor's Binding at 10^−7M, 5-HT3
T1 construct: purchased BIOLINKS K.K; host or cells: HEK-293 cells (membrane preparation)
T1 sequence (P46098 24-478): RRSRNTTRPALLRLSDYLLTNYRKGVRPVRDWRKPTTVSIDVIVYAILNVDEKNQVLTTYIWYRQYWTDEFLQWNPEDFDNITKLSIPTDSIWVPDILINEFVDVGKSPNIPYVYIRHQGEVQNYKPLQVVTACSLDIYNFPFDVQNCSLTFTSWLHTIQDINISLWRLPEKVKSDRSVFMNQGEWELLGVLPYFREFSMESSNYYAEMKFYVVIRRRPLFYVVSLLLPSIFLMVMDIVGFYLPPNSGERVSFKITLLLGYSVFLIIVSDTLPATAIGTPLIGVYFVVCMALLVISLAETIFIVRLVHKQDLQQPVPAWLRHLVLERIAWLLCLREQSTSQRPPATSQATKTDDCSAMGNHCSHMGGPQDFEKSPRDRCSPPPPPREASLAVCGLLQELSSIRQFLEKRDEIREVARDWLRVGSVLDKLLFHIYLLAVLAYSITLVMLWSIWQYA
Method: (2) Measurement of Affinity of Each Test Compound to Human 5-HT3 Receptor (in Vitro):
HEK-293 cell membrane sample in which human 5-HT3 receptor was expressed (purchased from BIOLINKS K.K.) 0.05 mL (about 50 microassay) was added to 24.95 mL of incubation buffer solution B (an aqueous solution of a mixture of 50 mmols/L of Tris-hydrochloric acid, 5 mmols/L of magnesium chloride and 1 mmol/L of EDTA, whose pH was adjusted to 7.5 at 25° C. with 1N-aqueous sodium hydroxide solution) and homogenized, to provide a membrane sample suspension B. Separately, each test compound was made into 270 μmols/L of DMSO solution and diluted to a prescribed concentration with the incubation buffer solution B to provide a compound solution.
A piece of polypropylene tube was charged with 20 μL of [^3H]BRL-43694 (purchased from Daiichi Pure Chemicals Co., Ltd.) (The concentration of [^3H]BRL-43694 had been advancedly adjusted to render its concentration in the reaction mixture to 0.5 nmols/L.) and 20 μL of one of the compound solutions. Further 500 μL of the membrane sample suspension B was added into the tube, followed by 60 minutes' incubation at 25° C. The reaction was terminated by rapid filtration of the reaction mixture through GF/B filter which had been advancedly immersed in a solution formed by adding to the incubation buffer solution B polyethyleneimine to a concentration of 0.5%, using Brandel cell harvester. Then the filter was washed with about 5 mL of 50 mmols/L of Tris-hydrochloric acid which had been cooled to 4° C. The filter was once again washed after similar operation.
(§1) Residual radioactivity on the filter was measured with liquid scintillation counter (ALOKA CO., LTD. LSC-5100). Percent inhibition (%) of each test compound to binding of [^3H]BRL-43694 to 5-HT3 receptor at a concentration of 0.5 nmols/L, i.e., affinity of each test compound to 5-HT3 receptor, can be calculated according to the following expression. The ratio of non-specific binding was calculated by measuring the radioactivity in case of using tropisetron: (ICS 205-930) at a concentration of 10 μmols/L, with which value the measured value of each test compound was compensated.
(§2) Affinity of each test compound to 5-HT1A receptor and 5-HT3 receptor at a concentration of 100 nmols/L were as shown in the following Tables A-1 and A-2. BRL-43694 and tropisetron (ICS 205-930), which were used in measuring affinity of those compounds to 5-HT3 receptor, have the following structures: […]

human 5-HT1A receptor = molecular target: T2, human 5-HT1A receptor (Homo sapiens, UniProt P08908); assay: Affinity measurement of the compounds to human 5-HT1A receptor (in vitro), [3H]8-OH-DPAT binding; conditions: test compound 100 nmols/L; [3H]8-OH-DPAT 0.25 nmols/L; CHO cell membrane expressing human 5-HT1A receptor; read-out: Percent Inhibition (%) on Each Receptor's Binding at 10^−7M, 5-HT1A
T2 construct: purchased Packard Bioscience; host or cells: CHO cells (membrane preparation)
T2 sequence (P08908 1-422): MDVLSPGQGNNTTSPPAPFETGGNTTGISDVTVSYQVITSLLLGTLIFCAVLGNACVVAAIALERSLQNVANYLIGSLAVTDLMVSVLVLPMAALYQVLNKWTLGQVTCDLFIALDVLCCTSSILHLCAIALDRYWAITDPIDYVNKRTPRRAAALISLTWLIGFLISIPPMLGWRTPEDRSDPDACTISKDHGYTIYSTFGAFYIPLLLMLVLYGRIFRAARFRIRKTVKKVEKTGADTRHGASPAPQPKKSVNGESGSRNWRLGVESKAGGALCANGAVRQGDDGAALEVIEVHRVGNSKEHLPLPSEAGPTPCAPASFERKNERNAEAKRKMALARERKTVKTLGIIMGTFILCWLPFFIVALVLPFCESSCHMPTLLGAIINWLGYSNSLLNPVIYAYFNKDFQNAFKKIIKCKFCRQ
Method: (1) Affinity Measurement of the Compounds to Human 5-HT1A Receptor (in Vitro)
CHO cell membrane sample in which human 5-HT1A receptor was expressed (purchased from Packard Bioscience) 0.25 mL (about 50 units) was added to 24.75 mL of incubation buffer solution A (an aqueous solution of a mixture of 50 mmols/L of Tris-hydrochloric acid, 10 mmols/L of magnesium sulfate, 0.5 mmols/L of EDTA and 0.1% ascorbic acid, whose pH was adjusted to 7.4 at 27° C. with 1N-aqueous sodium hydroxide solution), and labeled as membrane sample suspension A. Separately, each test compound was made into 270 μmols/L DMSO solution and diluted to a prescribed concentration with the incubation buffer solution A, to provide a compound solution.
A piece of polypropylene tube was charged with 20 μL of [^3H]8-OH-DPAT (8-hydroxy-2-(di-n-propylamino)tetralin; purchased from Daiichi Pure Chemicals Co., Ltd.) (The concentration of the [^3H]8-OH-DPAT had been advancedly adjusted to render its concentration in the reaction mixture to 0.25 nmols/L) and 20 μL of one of the compound solutions. Further 500 μL of the membrane sample suspension A was added into the tube, followed by 60 minutes' incubation at 27° C. The reaction was terminated by rapid filtration of the reaction mixture through GF/C filter which had been advancedly immersed in a solution formed by adding to the incubation buffer solution A polyethyleneimine to a concentration of 0.3%, using Brandel cell harvester. Then the filter was washed with about 5 mL of 50 mmols/L of Tris-hydrochloric acid which had been cooled to 4° C. The filter was once again washed after similar operation.
as §1, with “(Aloka Co.,” for “(ALOKA CO., LTD.”, “[^3H]8-OH-DPAT” for “[^3H]BRL-43694”, “5-HT1A” for “5-HT3”, “0.25” for “0.5”, “8-OH-DPAT” for “tropisetron: (ICS 205-930)”
as §2

| inhibition at 0.1 µM (human 5-HT3 receptor) | inhibition at 0.1 µM (human 5-HT1A receptor) | SMILES |
| --- | --- | --- |
| 6.3% | 53% | Cn1c(CCCN2CCN(c3ccc4ccccc4n3)CC2)nc2c(c1=O)CCCC2 [Example 7-5, 3-methyl-2-[3-(4-quinolin-2-ylpiperazin-1-yl)propyl]-5,6,7,8-tetrahydro-3H-quinazolin-4-one] |
| 93.2% | 96% | CC1CCc2nc(CCCCN3CCN(c4ccc5ccccc5n4)CC3)n(C)c(=O)c2C1 (centres unmarked) [Example 7-12, 3,6-dimethyl-2-[4-(4-quinolin-2-ylpiperazin-1-yl)butyl]-5,6,7,8-tetrahydro-3H-quinazolin-4-one] |
| 50% | 100% | NN1Oc2c(sc3c2CCNC3)N=C1SCCCN1CCN(c2ccc3ccccc3n2)CC1 [Example 1-59, 3-amino-2-[3-(4-quinolin-2-ylpiperazin-1-yl)propylthio]-3,4,5,6,7,8-hexahydro-4-oxa-9-thia-1,3,7-triaza-9H-fluorene trihydrochloride] |
| 61.2% | 85% | O=c1c2c(nc(CCCCN3CCN(c4ccc5ccccc5n4)CC3)n1Cc1ccccc1)CCCC2 [Example 7-4, 3-benzyl-2-[4-(4-quinolin-2-ylpiperazin-1-yl)butyl]-5,6,7,8-tetrahydro-3H-quinazolin-4-one] |
| 51.9% | 57.7% | CCCc1cc(=O)[nH]c(SCCCN2CCN(c3ccc4ccccc4n3)CC2)n1 [Example 2-14, 6-propyl-2-[3-(4-quinolin-2-ylpiperazin-1-yl)propylthio]-3H-pyrimidin-4-one] |
| 74.5% | 76% | Cc1cc(N2CCN(CCCNc3nc4c(c(=O)[nH]3)CCCC4)CC2)nc2ccccc12 [Example 5-3, 2-[3-[4-(4-methylquinolin-2-yl)piperazin-1-yl]propylamino]-5,6,7,8-tetrahydro-3H-quinazolin-4-one] |
| 88.7% | 96.8% | CCC1CCc2nc(CCCCN3CCN(c4ccc5ccccc5n4)CC3)n(N)c(=O)c2C1 (centres unmarked) [Example 4-61, 3-amino-6-ethyl-2-[4-(4-quinolin-2-ylpiperazin-1-yl)butyl]-5,6,7,8-tetrahydro-3H-quinazolin-4-one] |
| 87.7% | 90.4% | CC1CCCc2c1nc(CCCCN1CCN(c3ccc4ccccc4n3)CC1)n(N)c2=O (centres unmarked) [Example 4-36, 3-amino-8-methyl-2-[4-(4-quinolin-2-ylpiperazin-1-yl)butyl]-5,6,7,8-tetrahydro-3H-quinazolin-4-one] |
| 68.8% | 93.1% | Cn1c(CCCCN2CCN(c3ccc4ccccc4n3)CC2)nc2cccc(Cl)c2c1=O [Example 7-18, 5-chloro-3-methyl-2-[4-(4-quinolin-2-ylpiperazin-1-yl)butyl]-3H-quinazolin-4-one] |
| 79.3% | 97% | Nn1c(CCCCN2CCN(c3ccc4ccccc4n3)CC2)nc2sccc2c1=O [Example 4-23, 3-amino-2-[4-(4-quinolin-2-ylpiperazin-1-yl)butyl]-3H-thieno[2,3-d]-pyrimidin-4-one] |
| 93.2% | 96.6% | Nn1c(SCCCN2CCN(c3ccc4ccccc4n3)CC2)nc2sc3c(c2c1=O)CCCC3 [Example 1-4, 3-amino-2-[3-(4-quinolin-2-ylpiperazin-1-yl)propylthio]-5,6,7,8-tetrahydro-3H-benzo[4,5]thieno[2,3-d]pyrimidin-4-one] |
| 34.6% | 41.9% | O=c1[nH]c(SCCCN2CCN(c3ccc4ccccc4n3)CC2)nc2ccsc12 [Example 2-12, 2-[3-(4-quinolin-2-ylpiperazin-1-yl)propylthio]-3H-thieno[3,2-d]-pyrimidin-4-one] |

| SMILES | inhibition at 0.1 µM (human 5-HT3 receptor) | inhibition at 0.1 µM (human 5-HT1A receptor) |
| --- | --- | --- |
| Brc1cc2c(N3CCN4CCC[C@H]4C3)nccc2s1 [Production Example 106, 2-bromo-4-((8aS)-octahydropyrrolo[1,2-a]pyrazin-2-yl)thieno[3,2-c]-pyridine] | 98.3% | 101% |
| COc1ccc2c(C)cnc(N3CCNCC3)c2c1 [Production Example 28, 7-methoxy-4-methyl-1-piperazin-1-ylisoquinoline] | 92.5% | 23.9% |
| NS(=O)(=O)Oc1ccc2ccnc(N3CCN4CCC[C@H]4C3)c2c1 [Production Example 87] | 96.9% | 96.4% |
| Oc1ccc2ccnc(N3CCN4CCC[C@H]4C3)c2c1 [Production Example 85] | 98.9% | 99.9% |
| c1cc2ccoc2c(N2CCNCC2)n1 [Production Example 1, 7-piperazin-1-ylfuro[2,3-c]pyridine] | 80.8% | 86.7% |
| COc1ccc2c(N3CCNCC3)nccc2c1 [Production Example 40, 6-methoxy-1-piperazin-1-ylisoquinoline] | 99.3% | 42.9% |
| CN1CCN(c2nc(Cl)cc3ccccc23)CC1 [Production Example 16, 3-chloro-1-(4-methylpiperazin-1-yl)isoquinoline dihydrochloride] | 99.2% | 61.1% |
